Literature values as cited in patent EP0433909A2, “Formulation” (CIBA-GEIGY AG, priority 1989, dated 1991).

Conditions: for solubilities: in water, K. Wellinga et al., J. Agr. Food Chem. Vol 21, No.3 (1973), p.350

SMILES	solubilities	solubility in water (The Merck Index, 9th Ed. (1976), p. 416)
O=C(NC(=O)c1c(Cl)cccc1Cl)Nc1ccc(Cl)cc1 [1-(4-chlorophenyl)-3-(2,6-dichlorobenzoyl)-urea]	≤ 1 ppm	–
O=C(NC(=O)c1c(Cl)cccc1Cl)Nc1ccc(Cl)c(Cl)c1 [1-(2,6-dichlorobenzoyl)-3-(3,4-dichlorophenyl)-urea]	≤ 1 ppm	–
O=C(NC(=O)c1c(F)cccc1F)Nc1ccc(Cl)cc1 [1-(4-chlorophenyl)-3-(2,6-difluorobenzoyl)urea]	–	about 0.3 ppm
